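In this assay, cells in 96-well plates receive the compound at five concentrations for 48 hours. Endpoints are linearly interpolated between the surrounding concentrations. Here, GI50 denotes the concentration required for 50% inhibition of growth. At the TGI there is no net growth.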 Where a SMILES comes first, the peptide text is derived from it. The star is where a group is joined. Palmitoyl = CCCCCCCCCCCCCCCC(=O)*
Assays:
Assay in all cases: inhibition of tumour cell growth, NCI panel, 48 h
[1] = system: HS 578T breast
[2] = system: HCC-2998 colon
[3] = system: MDA-MB-231 breast
[4] = system: BT-549 breast
[5] = system: SR leukemia
[6] = system: MDA-N
[7] = system: SNB-78 CNS
[8] = system: DLD-1 colon
[9] = system: M19-MEL melanoma
[10] = system: DMS 273 small cell lung
[11] = system: 786-0 renal
[12] = system: KM20L2 colon
[13] = system: PC-3 prostate
[14] = system: NCI/ADR-RES ovarian

SMILES | TGI [1] | TGI [2] | TGI [3] | TGI [4] | TGI [5] | TGI [6] | TGI [7] | TGI [8] | TGI [9] | TGI [10] | TGI [11] | TGI [12] | TGI [13] | TGI [14] | GI50 [1] | GI50 [2] | GI50 [14] | GI50 [3] | GI50 [4] | GI50 [5]
Cc1c(-c2ccccc2)[nH]c2cc(Cl)ccc2c1=O | 65.6 µM | > 100 µM | > 100 µM | > 100 µM | > 100 µM | > 100 µM |  |  |  |  |  |  |  |  |  |  |  |  |  | 
COc1cc(C(C)O)c[n+](Cc2ccccc2)c1 (stereo unspecified) |  | > 100 µM |  |  | > 100 µM |  | > 100 µM | > 100 µM | > 100 µM | > 100 µM | > 100 µM | > 100 µM |  |  |  |  |  |  |  | 
CON(C)c1nc(N(C)OC)nc(N(C)OC)n1 | > 10 µM | > 10 µM | > 10 µM |  | > 10 µM | > 10 µM |  |  |  |  |  |  | > 10 µM | > 10 µM |  |  |  |  |  | 
CC(N)Cc1ccc(Cl)c(Cl)c1 (stereo unspecified) |  | 31.2 µM |  |  | 48.1 µM |  | > 100 µM | > 100 µM | 47 µM | > 71.9 µM | > 100 µM | 53.7 µM |  |  |  |  |  |  |  | 
COC(=O)c1c(C)n([O-])c2cc(Cl)c(Cl)cc2[n+]1=O | 65.6 µM | 32.1 µM | 67.2 µM | > 100 µM | > 100 µM | > 100 µM |  |  |  |  | > 100 µM |  | > 100 µM | 49.5 µM |  |  |  |  |  | 
CCN1CCC(O)(/C=C/c2ccccc2C)C(C(=O)/C=C/c2ccccc2C)C1 (stereo unspecified) | 16.2 µM | 2.61 µM | 7.11 µM | 6.44 µM | > 100 µM | 8.88 µM |  |  |  |  |  |  | 4.05 µM | 12.7 µM |  |  |  |  |  | 
CN1C(c2ccccc2)CC(=O)C(N)C1c1ccccc1 (stereo unspecified) |  | 43.3 µM |  |  | > 60.2 µM |  | 69.7 µM | > 100 µM | 55.5 µM | > 61.7 µM | 97.7 µM | > 90.6 µM |  |  |  |  |  |  |  | 
O=C(N/N=C/c1ccc([N+](=O)[O-])cc1)Nc1ccc(C(=O)O)cc1 | > 100 µM | 52.6 µM | > 100 µM | > 100 µM | > 100 µM | > 100 µM |  |  |  |  | > 100 µM |  | > 100 µM | > 100 µM |  |  |  |  |  | 
c1cnc2c(c1)ccc1cccnc12 | 97.8 µM | > 62.4 µM | > 100 µM | > 100 µM | 4.26 µM | > 100 µM |  |  |  |  | > 100 µM |  | > 100 µM | > 74.7 µM |  |  |  |  |  | 
COC(=O)/C=C(\CC(=O)OC)n1nnnc1[C@@H]1C[C@H](COC(c2ccccc2)(c2ccccc2)c2ccccc2)[C@H]2OC(C)(C)O[C@H]21 | > 100 µM |  | > 100 µM |  | > 100 µM | > 100 µM |  |  |  |  | > 100 µM |  | > 100 µM |  |  |  |  |  |  | 
CCCCCCCCCCCCCCCC(=O)N1CCCC1C(=O)NCC(=O)NC(Cc1ccccc1)C(=O)NC(C)C(=O)NC(CO)C(=O)NC(Cc1ccc(O)cc1)C(=O)NC(CCCCN)C(=O)NC(CC(C)C)C(=O)NC(CCCN=C(N)N)C(=O)N1CCCC1C(=O)NCC(N)=O (stereo unspecified) (Palmitoyl-PGFASYKLRPG-NH2; configuration not given here) | > 100 µM | 28.9 µM | 26.5 µM | 45.3 µM | 24.5 µM |  |  |  |  |  |  |  |  | 35 µM | 39.7 µM | 13.4 µM | 16.2 µM | 12.5 µM | 21.9 µM | 12 µM
Cc1ccc(-c2nc(N/N=C/C=C/c3ccccc3)c3ccccc3n2)cc1 | > 100 µM | > 100 µM | 47.9 µM | 52.2 µM | > 100 µM | > 100 µM |  |  |  |  | > 100 µM |  | > 100 µM | > 100 µM |  |  |  |  |  | 
C=C(C)C1Cc2c(c3ccccc3n(C)c2=O)O1 (stereo unspecified) |  |  |  |  |  |  | > 100 µM | > 100 µM | > 100 µM |  |  | > 100 µM |  |  |  |  |  |  |  | 
c1ccc(-c2nc(N3CCNCC3)c3oc(-c4ccccc4)nc3n2)cc1 | 4.07 µM | 3.05 µM | 3.28 µM |  | 0.793 µM |  |  |  |  |  |  |  |  |  | 1.88 µM | 1.58 µM |  | 1.76 µM |  | 0.259 µM
